Data on one molecule can be found in patent EP4613274A1, “SENOLYTIC COMPOUNDS” (Freie Universität Berlin, priority 2024, dated 2025).

Assay [1] concerns Eµ-myc transgenic lymphomas. The assay can be described thus: Overall survival of CTX-treated lymphoma-bearing mice with sequential POG exposure. The format is in vivo. Particulars: CTX 1 × 300 mg/kg i.p. then POG 2 × 0.25 mg/kg i.v. How it is done:
The inventors also analyzed the impact of a sequential POG exposure on overall survival in chemotherapy-exposed mice bearing senescence-capable vs. senescence-incapable lymphomas. […] In essence, POG treatment led to reduction of senescent cells in vivo, and extended healthy lifespan of aged and anticancer-treated mice.
CTX treatment: 1 × 300 mg/kg body weight via i.p., POG treatment: 2 × 0.25 mg/kg body weight via the i.v. application route. Figure 7B illustrates means ± SD, wherein an unpaired two-tailed Student's t test was done for statistical analysis (*P < 0.05).

Assay [2] has as its system C57/BL6 mice. The assay can be described thus: Rotarod performance test in aged mice. The format is in vivo. The conditions noted are these: 10-months old mice, 0.25 mg/kg body weight i.v. twice every fortnight, rotarod one month later, versus solvent. Here is the method: To quantify the global impact of POG on age-related physical decline, a rotarod performance test was conducted, which captures the time mice can run on a rotating rod before falling off due to exhaustion.
For the experiments, the results of which are shown in Figure 7A, C57/BL6 mice (10-months old, "old mice") were treated twice with POG (0.25 mg/kg body weight, i.v. injected every fortnight; n = 11) or solvent (n = 11), before their physical performance was assessed using a rotarod device one month later (from 4 to 40 rpm in 180 s; acceleration rate: 0.2 rpm/s). For comparison a cohort of untreated young mice (8-weeks old; n = 10) was measured in parallel. Each datapoint represents the maximum time the (previously trained) animal was able to remain on the rotating rod from 5 consecutive runs per mouse.
For orientation: In the rotarod test animals must keep their balance on a rotating rod.

Assay [3] relates to C57/BL6 mice. Put plainly: NMU-induced tumorigenesis in vivo (T-cell lymphoma development). Particulars: 30 mg NMU/kg i.p. for 5 weeks, POG-4 2 × 0.25 mg kg^-1 i.v. within one week, monitored 300 d; p = 0.0258. Here is the method:
The interference of POG-4 with NMU-induced tumorigenesis was established in vivo (Figure 11). For this purpose, 30 days old C57/BL6 mice were mutagenized for 5 consecutive weeks with 30 mg NMU/kg bodyweight (b.w.) intraperitoneally (i.p.) prior to treatment with POG-4 (2 × 0.25 mg kg^-1 body weight intravenously (i.v.) injected within one week) or solvent, respectively. The mice were subsequently monitored for 300 d and T-cell lymphoma development was plotted as the time between first NMU treatment and tumor manifestation in a Kaplan Meier format. Log-rank [Mantel-Cox] test was used to compare solvent- and POG-treated cohorts.

In assay [4] the test system is Primary mouse embryo fibroblasts (MEF). The assay can be described thus: Viability of rotenone-treated MEF with raised cellular NADH (dye exclusion assay). The format is cell-based. Particulars: 500 nM rotenone 2 h prior to POG exposure (1 µM), viability 22 h later. Here is the method:
Increasing cellular NADH levels sensitizes cells towards POG-mediated killing in a H2O2-dependent fashion. Primary mouse embryo fibroblasts (MEF) were stably transduced with a catalase-overexpressing retrovirus or empty virus and exposed to 500 nM rotenone (an NADH dehydrogenase inhibitor used to increase cellular NADH levels via inhibition of the mitochondrial complex I) 2 h prior to POG exposure (1 µM) before measuring cell viabilities 22 h later using a dye exclusion assay (Ghost Dye Red 780, 13-0865-T500, Tonbo). Figure 5 illustrates the results in form of means ± standard deviation (SD).

Assay [5] has as its system Eµ-myc;Bcl2 lymphoma cells. Put plainly: 22-hours cytotoxicity assay (dye exclusion) in therapy-induced senescence (TIS) model. The conditions noted are these: ADR 0.02 µg/ml for 10 d; for senolytic activity in senescent cells protected by expression of catalase: catalase overexpression, POG for 22 h. It counts as cell-based, murine. Here is the method: TIS: Eµ-myc;Bcl2 lymphoma cells (with or without catalase overexpression) and senescence-/p53-deficient Eµ-myc; Bcl2 lymphoma cells were treated with ADR (0.02 µg/ml) or solvent.
(§1) All cells were analyzed at day 10 after start of the treatment and oncogene induction, respectively. Shown in grey in the first (left) column are mean percentages of senescence-associated beta-galactosidase (SA-β-gal)-)positive cells for each treatment. Proliferating cells and their senescent counterpart were exposed to the same increasing concentrations of POG (from left to right: murine Eµ-myc lymphoma cells and primary mouse fibroblasts = 0, 0.2, 0.4, 0.8, and 1.2 µM) POG, for VIS and RS = 0, 2, 3, 4, and 5 µM) POG, and for all others = 0, 1, 2, 3, and 4 µM) POG) for 22 h before measuring their viabilities using a dye exclusion test.
Viability of solvent-treated cells were set to 100% for each treatment and viabilities of POG-treated cells were normalized relative to solvent-treated controls.
The senescent state was documented by specific measurement of increased SA-β-galactosidase activity. […] Eµ-myc;Bcl2 lymphoma cells (with or without ectopic catalase overexpression, introduced via stable retroviral gene transfer) and senescence-/p53-deficient Eµ-myc;Bcl2 lymphoma cells were treated with ADR (0.02 µg/ml) or solvent for 10 d. Proliferating cells and their senescent counterpart were exposed to the same increasing concentrations of POG for 22 h before measuring their viabilities using a dye exclusion test (Ghost Dye Red 780, 13-0865-T500, Tonbo). Viability of solvent-treated cells were set to 100% for each treatment and viabilities of POG-treated cells were normalized relative to solvent-treated controls.

In assay [6] the test system is Liver cell preparations. Put plainly: Ex vivo treatment of liver cell preparations (SA-β-gal, TUNEL, DAPI staining). The format is cell-based, C57/BL6 mice. Particulars: old (20-months old) mice, ex vivo 22 h, POG 1.5 µM. How it is done:
Liver cell preparations from young (10-weeks old) and old (20-months old) C57/BL6 mice were treated ex vivo for 22 h with POG (1.5 µM) or solvent. Cells were fixed and stained for SA-β-gal, TUNEL (Terminal deoxynucleotidyl transferase dUTP nick end labeling) and DAPI (4',6-diamidino-2-phenylindole). Percentage of senescent (SA-β-gal-positive) cells present in the viable (TUNEL-negative) liver cell population (Figure 8A) and overall viability of the liver cell population (Figure 8B) was quantified via fluorescence microscopy.

The test system of assay [7] is A549. Put plainly: Virus-induced senescence (VIS) model, dye exclusion viability test. The format is cell-based, human. The conditions noted are these: lentivirus MOI = 50, POG-4 for 22 h. How it is done: VIS: The human alveolar epithelial adenocarcinom cell line A549 as well as VIS-deficient VeroB4 cells were infected with a high-titer GFP-expressing lentivirus (pCDH-CMV-MCS-EF1-GFP; MOI = 50) to induce VIS.
as §1
The adenocarcinomic alveolar epithelial cell line A549 as well as VIS-deficient VeroB4 cells were infected with a high-titer GFP-expressing lentivirus (pCDH-CMV-MCS-EF1-GFP; multiplicity of infection [MOI] = 50). At day 6, the cells were stained for SA-β-gal before treating them with increasing concentrations of POG-4. After 22 h, the cell viability was measured using a dye exclusion test. Figure 12 illustrates means ± SD.

The subject of assay [8] is Primary mouse fibroblasts (MEF). Put plainly: NMU-induced transformation of MEF, soft-agar colony formation. Particulars: 2 mM NMU for 5 weeks, POG-4 1.0 µM, 10 weeks in 0.3 % soft-agar. The format is cell-based. Here is the method:
Primary mouse fibroblasts (MEF) were treated for 5 weeks with 2 mM N-nitroso-N-methylurea (NMU) or solvent to mutagenize their genomes. Selective killing of senescent subpopulation was assessed by measuring the percentage of SA-β-gal positive cells after POG-4 exposure (1.0 µM for 22 h). […] 2 × 10^4 of viable NMU-pre-treated MEF with or without subsequent POG-4 exposure (1.0 µM) from the experiment of Figure 9A were seeded in 0.3 % soft-agar and cultivated for 10 weeks, before formation of colonies (>50 cells/colony) was quantified. Again, means ± SD are illustrated POG-mediated senolysis of DMBA-induced OIS cells was tested; the results are depicted in Figure 10. Like NMU, 7,12-dimethyl-benzoanthracen (DMBA) is known to induce oncogenic mutations across all Ras isoforms. MEF were mutagenized with DMBA (0.25 µg/ml) for 7 days before cells were exposed to increasing concentrations of POG 1 week later. Cell viabilities were measured 22 h later using a dye exclusion assay (right; (Ghost Dye Red 780, 13-0865-T500, Tonbo). SA-β-gal stainings (left) were performed 2 days after POG exposure. Filled circles denote experiments conducted with solvent; filled squares denote experiments conducted with DMBA.

Assay [9] concerns hydrogen peroxide. Put plainly: Europium-tetracycline (EuTc) fluorescence assay for hydrogen peroxide generation. The format is biochemical. The source says:
For a confirmation of the POG redox cycling, hydrogen peroxide formed by peroxygenin from elemental oxygen was quantified. For this purpose, a fluorescence-based europium tetracycline assay in 3-(N-morpholino)propanesulfonic acid (MOPS) buffer at pH 6.9, close to the physiological pH, was adapted for monitoring of hydrogen peroxide released from POG-4 (Wolfbeis et al., 2002; Dürkop et al., 2005; Wu et al., 2005; Schrenkhammer et al., 2007) Reportedly, this assay is based on the formation of an quaternary pentagonal bipyramidal Eu(III)-tetracycline (Tc) complex of the stoichiometry Eu2Tc2 (Karthikeyan et al., 2004) in which one equivalent of hydrogen peroxide forms a bridged peroxide complex (µ-H2O2 ligand) (Dehaen et al. 2009) and upon excitation at 405 nm fluoresces at 616 nm. First, the sensitivity of the assay toward hydrogen peroxide was investigated. For that, different hydrogen peroxide concentrations, ranging from 10 µM to 1000 µM, were used to analyze the fluorescence signal (Figures 2A and 2B, curves 6 to 14 and 26 to 34; curves 6 and 26:1000 µM, curves 7 and 27: 800 µM, curves 8 and 28: 400 µM, curves 9 and 29: 200 µM, curves 10 and 30: 100 µM, curves 11 and 31: 50 µM, curves 12 and 32: 25 µM, curves 13 and 33: 10 µM, curves 14 and […]).
Next, the same assay conditions were applied to quantify hydrogen peroxide formation from POG-4 (V3) (referred to in the following simply as POG-4) having the following formula: [drawing 142] […]
Protocol: The assay was performed in cuvettes with a base area of 1 cm x 1 cm. Measurement of fluorescence intensity was carried out with a fluorescence spectrometer FP-6500 by Jasco at λem = 616 nm (λex = 405 nm). […]
H2O2 calibration: DTT (10 µL, 200 mM; 1mM final concentration) were added to Eu2Tc2 (2 mL) solution in a cuvette and equilibrated by stirring for 5 min at 37 °C until the fluorescence signal was constant. […] All measurements were repeated three times and a mean was calculated. […]

For `Cn1nc(/C=C/c2ccccc2)nc2c(=O)n(C)c(=O)nc1-2` [POG-4, (E)-1,6-Dimethyl-3-styrylpyrimido[5,4-e][1,2,4]triazine-5,7(1H,6H)-dione], the overall survival result is “lived significantly longer” in assay [1] (senescence-capable p53+/+ Eµ-myc lymphomas, versus DMSO, P = 0.0282) and “failed to realize such benefit” in assay [1] (senescence-incapable Eµ-myc;p53-null lymphomas, P > 0.05). In addition, the “running time on rotating rod” value in assay [2] is given as “significantly extended the running time”. In addition, the “NMU-induced tumorigenesis (time to tumor manifestation)” value in assay [3] is recorded as “interferes with NMU-induced tumorigenesis in vivo”. Besides, in assay [4], the “dependence of activity on cellular NADH levels” value is recorded as “relied on increased levels of the reducing equivalent (NADH)”. The “sensitivity of senescent cells versus non-senescent tumor cells (viability)” value in assay [5] (then POG for 22 h) was “significantly more sensitive”. Besides, the “senolytic activity in senescent cells protected by expression of catalase” value in assay [5] was “did not exhibit senolytic activity”; in assay [5] (listed as POG), “lack sensitivity”. Also, the “percentage of senescent liver cells” value in assay [6] is “decreased significantly”. In [7], the “senolytic activity against virus-induced senescence” value was “exhibit senolytic activity”. Also, in assay [8], the “NMU-induced transformation (soft-agar colonies)” value is “ablates NMU-induced transformation”. In assay [9] (5 µM POG-4, 1 mM NADH), the “time at which the maximum concentration was reached” value is “approximately 120 minutes”. Also, in [9] (POG 1 µM, NADH 0.1 mM to 5 mM), the “hydrogen peroxide concentration in dependence on NADH concentration” value is listed as “higher hydrogen peroxide concentration”. Besides, the “generation of H2O2 (fluorescence)” value in [9] (POG-4 0.1 to 5 µM with 1 mM NADH, MOPS buffer pH 6.9, time frame of 300 min) is “continuous generation of H2O2”.
